Legend:
DGKa = DGKa (Homo sapiens (Human), UniProt P23743); test: DGK ADP-Glo Kinase Assay (DGKa); assay type: biochemical; settings: 10 nM DGKa, 15 uM ATP
Experimental: (§1) Luminescence was recorded using an Tecan SPARK microplate reader.

DGKz = DGKz (Homo sapiens (Human), UniProt Q13574); test: DGK ADP-Glo Kinase Assay (DGKz); assay type: biochemical; settings: 5 nM DGKz, 15 uM ATP
Experimental: as §1

Chain of DGKa (P23743 whole entry): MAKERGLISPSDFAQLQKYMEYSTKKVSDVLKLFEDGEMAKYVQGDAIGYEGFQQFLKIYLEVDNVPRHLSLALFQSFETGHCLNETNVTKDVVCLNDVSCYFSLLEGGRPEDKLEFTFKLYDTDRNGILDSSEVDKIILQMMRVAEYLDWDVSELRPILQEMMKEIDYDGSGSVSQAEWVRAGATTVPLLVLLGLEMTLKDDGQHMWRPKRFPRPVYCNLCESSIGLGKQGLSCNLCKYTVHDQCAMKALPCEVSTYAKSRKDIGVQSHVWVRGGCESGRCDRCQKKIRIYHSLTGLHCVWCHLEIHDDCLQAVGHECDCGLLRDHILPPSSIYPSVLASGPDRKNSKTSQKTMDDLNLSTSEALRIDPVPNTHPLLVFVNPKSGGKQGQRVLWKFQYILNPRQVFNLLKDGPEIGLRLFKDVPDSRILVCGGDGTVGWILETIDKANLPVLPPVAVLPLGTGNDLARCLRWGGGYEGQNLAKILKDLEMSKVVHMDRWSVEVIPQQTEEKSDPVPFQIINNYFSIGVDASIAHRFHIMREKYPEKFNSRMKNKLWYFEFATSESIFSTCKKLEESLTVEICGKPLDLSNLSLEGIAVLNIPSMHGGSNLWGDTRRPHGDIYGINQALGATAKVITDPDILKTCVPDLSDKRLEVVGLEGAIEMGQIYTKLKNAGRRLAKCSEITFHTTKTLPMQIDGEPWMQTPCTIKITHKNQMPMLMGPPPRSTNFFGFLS
Chain of DGKz (Q13574 whole entry): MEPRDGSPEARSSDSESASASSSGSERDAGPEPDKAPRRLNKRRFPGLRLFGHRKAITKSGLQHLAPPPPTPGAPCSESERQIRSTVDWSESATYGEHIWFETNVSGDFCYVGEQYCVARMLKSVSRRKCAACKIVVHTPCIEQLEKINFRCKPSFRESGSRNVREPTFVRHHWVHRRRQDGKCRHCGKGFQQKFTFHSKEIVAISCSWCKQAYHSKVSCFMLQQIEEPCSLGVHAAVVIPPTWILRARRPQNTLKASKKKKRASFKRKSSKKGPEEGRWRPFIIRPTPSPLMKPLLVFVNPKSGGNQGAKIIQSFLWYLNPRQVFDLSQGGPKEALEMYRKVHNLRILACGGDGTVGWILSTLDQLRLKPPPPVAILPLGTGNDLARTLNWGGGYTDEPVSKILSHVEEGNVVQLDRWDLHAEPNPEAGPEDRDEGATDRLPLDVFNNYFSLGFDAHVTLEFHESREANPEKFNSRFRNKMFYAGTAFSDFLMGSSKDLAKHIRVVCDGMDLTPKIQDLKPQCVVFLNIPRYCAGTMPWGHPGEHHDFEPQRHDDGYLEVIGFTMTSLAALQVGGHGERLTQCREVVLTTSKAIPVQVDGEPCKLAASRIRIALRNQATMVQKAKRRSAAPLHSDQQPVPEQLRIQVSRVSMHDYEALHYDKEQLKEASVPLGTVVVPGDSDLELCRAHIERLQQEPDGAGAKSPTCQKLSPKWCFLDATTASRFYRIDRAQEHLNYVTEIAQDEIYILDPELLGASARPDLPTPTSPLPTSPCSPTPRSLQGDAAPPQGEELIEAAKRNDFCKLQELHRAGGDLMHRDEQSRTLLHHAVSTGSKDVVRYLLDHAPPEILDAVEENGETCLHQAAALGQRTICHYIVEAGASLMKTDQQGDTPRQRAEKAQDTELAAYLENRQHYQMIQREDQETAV

Compound | IC50 (DGKa) | IC50 (DGKz)
CC[C@@H]1C[C@H](c2nc3cc(C)ccc3o2)CCN1c1nc(=O)n(C)c2cc(O[C@H]3CCOC3)c(Cl)cc12 [Compound 91] | < 100 nM | > 1000 nM
CC[C@H]1CN([C@H](CC)c2ccc(S(F)(F)(F)(F)F)cc2)[C@H](CC)CN1c1nc(=O)n2c3c(cc(C#N)nc13)OCC2 (stereo in doubt) [Compound 79] | 100 to 1000 nM | 100 to 1000 nM
Cn1c(=O)c(C(N)=O)c(N2CCC3(CN(c4ccc(OC(F)(F)F)cc4)C3)C2)c2nc(C#N)ccc21 [Compound 15] | < 100 nM | > 1000 nM
CC[C@H]1CN(C(c2ccc(S(F)(F)(F)(F)F)cc2)C2CC2)[C@H](CC)CN1c1nc(=O)n(C)c2ccc(C#N)nc12 (single isomer, unassigned) [Compound 118] | < 100 nM | 100 to 1000 nM
Cn1c(=O)nc(N2CCC3(CC2)CC(c2cccc(C(F)(F)F)c2)=NO3)c2nc(C#N)ccc21 [Compound 47] | < 100 nM | < 100 nM
CC[C@H]1C[C@@H](c2nc3cc(C)ccc3o2)CCN1c1nc(=O)n(C)c2cc(O[C@@H]3CCOC3)c(Cl)cc12 [Compound 94] | 100 to 1000 nM | > 1000 nM
CC[C@H]1CN([C@H](CC)c2cccc(S(F)(F)(F)(F)F)c2)[C@H](CC)CN1c1nc(=O)n(C)c2ccc(C#N)nc12 (stereo in doubt) [Compound 55] | < 100 nM | < 100 nM
CC[C@H]1CN([C@@H](C)c2ccc(S(F)(F)(F)(F)F)cc2)[C@H](CC)CN1c1nc(=O)n(C)c2ccc(C#N)nc12 (stereo in doubt) [Compound 62] | < 100 nM | 100 to 1000 nM
CC[C@@H]1CN2c3c(c(=O)n(C)c4ccc(C#N)nc34)OC[C@@H]2CN1[C@H](CC)c1ccc(SC(F)(F)F)cc1 [Compound 124] | < 100 nM | 100 to 1000 nM
N#Cc1cc2c3c(n1)c(N1CCC4(CC1)CC(c1ccc(OC(F)(F)F)cc1)=NO4)nc(=O)n3CCO2 [Compound 59] | < 100 nM | 100 to 1000 nM
Cc1ccc2oc(C3CCN(c4nc(=O)n(C)c5cc(O[C@@H]6CCOC6)c(Cl)cc45)CC3)nc2c1 [Compound 32] | < 100 nM | > 1000 nM
CC[C@H]1CN([C@H](CC)c2cccc(S(F)(F)(F)(F)F)c2)[C@H](CC)CN1c1nc(=O)n(C)c2ccc(C#N)nc12 (stereo in doubt) [Compound 56] | 100 to 1000 nM | 100 to 1000 nM
Cn1c(=O)nc(N2CCC3(CCN(c4ccc(OC(F)(F)F)cc4)C3)CC2)c2nc(C#N)ccc21 [Compound 8] | 100 to 1000 nM | 100 to 1000 nM
CC[C@@H]1C[C@H](Oc2ccc(OC(F)(F)F)cc2)CCN1c1nc(=O)n(C)c2ccc(C#N)nc12 [Compound 16] | 100 to 1000 nM | < 100 nM
CC[C@H]1C[C@H](Oc2ccc(OC(F)(F)F)cc2)CCN1c1nc(=O)n(C)c2ccc(C#N)nc12 (stereo in doubt) [Compound 18] | < 100 nM | 100 to 1000 nM
CC[C@@H]1C[C@@]2(CCN1c1nc(=O)n(C)c3ccc(C#N)nc13)CC(c1ccc(OC(F)(F)F)cc1)=NO2 (stereo in doubt) [Compound 75] | 100 to 1000 nM | 100 to 1000 nM

Compound | IC50 (DGKa) | IC50 (DGKz)
CN(c1cccc(C#CC2CC2)c1)c1nc(=O)n(C)c2ccc(C#N)nc12 [Compound 46] | < 100 nM | 100 to 1000 nM
CC[C@H]1CN([C@@H](CC)c2ccc(S(F)(F)(F)(F)F)cc2)[C@H](CC)CN1c1nc(=O)n2c3c(cc(C#N)nc13)OCC2 (stereo in doubt) [Compound 83] | < 100 nM | 100 to 1000 nM
CC[C@H]1CN([C@H](C)c2ccc(S(F)(F)(F)(F)F)cc2)[C@H](CC)CN1c1nc(=O)n(C)c2ccc(C#N)nc12 (stereo in doubt) [Compound 63] | < 100 nM | 100 to 1000 nM
CC[C@@H]1CN(c2nc(=O)n(C)c3ccc(C#N)nc23)[C@@H](C)CN1[C@@H](c1ccc(F)cc1)c1ccc(SC(F)(F)F)cn1 [Compound 72] | < 100 nM | < 100 nM
CC[C@H]1CN([C@@H](c2ccc(SC(F)(F)F)cc2)c2nc(C3CC3)cs2)[C@H](CC)CN1c1nc(=O)n(C)c2ccc(C#N)nc12 [Compound 58] | < 100 nM | 100 to 1000 nM
CC[C@H]1CN(C(c2ccc(S(F)(F)(F)(F)F)cc2)C2CC2)[C@H](CC)CN1c1nc(=O)n(C)c2ccc(C#N)nc12 (single isomer, unassigned) [Compound 117] | < 100 nM | 100 to 1000 nM
Cc1ccc2oc(C3CCN(c4nc(=O)n(C)c5ccc6nncn6c45)CC3)nc2c1 [Compound 22] | < 100 nM | > 1000 nM
Cn1c(=O)nc(N2CCC3(CC2)CC(c2ccc(OC(F)(F)F)cc2)=NO3)c2nc(C#N)ccc21 [Compound 31] | < 100 nM | < 100 nM
CC[C@@H]1C[C@H](c2nc3cc(C)ccc3o2)CCN1c1nc(=O)n(C)c2cc(O[C@@H]3CCOC3)c(Cl)cc12 [Compound 92] | 100 to 1000 nM | < 100 nM
CC[C@@H]1CN(c2nc(=O)n(C)c3ccc(C#N)nc23)[C@@H](C)CN1[C@@H](CC)c1ccc(S(F)(F)(F)(F)F)cc1 (stereo in doubt) [Compound 60] | < 100 nM | < 100 nM
CC[C@@H]1CN(c2nc(=O)n(C)c3ccc(C#N)nc23)[C@@H](C)CN1[C@H](CC)c1ccc(S(F)(F)(F)(F)F)cc1 (stereo in doubt) [Compound 61] | 100 to 1000 nM | 100 to 1000 nM
CC[C@@H]1CN2c3c(c(=O)n(C)c4ccc(C#N)nc34)OC[C@H]2CN1[C@H](CC)c1ccc(S(F)(F)(F)(F)F)cc1 [Compound 108] | < 100 nM | 100 to 1000 nM
Cn1c(=O)nc(N2CCCc3c(C#CC4CC4)cccc32)c2nc(C#N)ccc21 [Compound 42] | < 100 nM | 100 to 1000 nM
CC[C@H]1CN([C@H](c2ccc(S(F)(F)(F)(F)F)cc2)c2nc(C3CC3)cs2)[C@H](CC)CN1c1nc(=O)n(C)c2ccc(C#N)nc12 [Compound 98] | < 100 nM | < 100 nM
Cn1c(=O)nc(N2CCCc3c(C#CC4CC4)cccc32)c2nc(C#N)ccc21 [Compound 39] | < 100 nM | > 1000 nM

Continued, values first:

IC50 (DGKa) | IC50 (DGKz) | Compound
< 100 nM | < 100 nM | CCC(c1ccc(C23CC(C2)C3)nc1)N1C[C@H](CC)N(c2nc3nncn3c3ccc(C#N)nc23)C[C@H]1CC (stereo partly drawn) [Compound 104]
< 100 nM | < 100 nM | CC[C@H]1CN(C(C)c2ccc(SC(F)(F)F)cc2)[C@H](CC)CN1c1nc2nncn2c2ccc(C#N)nc12 (stereo partly drawn) [Compound 51]
< 100 nM | 100 to 1000 nM | CC[C@H]1CN([C@@H](CC)c2ccc(SC(F)(F)F)cc2)[C@H](CC)CN1c1nc2nncn2c2ccc(C#N)nc12 (single isomer, unassigned) [Compound 69]
< 100 nM | 100 to 1000 nM | CC[C@@H]1CN(c2nc3nncn3c3ccc(C#N)nc23)[C@@H](C)CN1[C@H](CC)c1ccc(SC(F)(F)F)cc1 (stereo in doubt) [Compound 71]
< 100 nM | < 100 nM | CC[C@H]1CN([C@@H](CC)c2cccc(C(F)(F)F)c2)[C@H](CC)CN1c1nc2nncn2c2ccc(C#N)nc12 (stereo in doubt) [Compound 105]
< 100 nM | 100 to 1000 nM | CC[C@@H]1CN(c2nc3nncn3c3ccc(C#N)nc23)[C@@H](C)CN1[C@H](CC)c1ccc(C(F)(F)F)cc1 (stereo in doubt) [Compound 82]
< 100 nM | < 100 nM | CC[C@H]1CN([C@@H](CC)c2ccc(S(F)(F)(F)(F)F)cc2)[C@H](CC)CN1c1nc2nncn2c2ccc(C#N)nc12 (stereo in doubt) [Compound 86]
< 100 nM | < 100 nM | CC[C@H]1CN([C@@H](CC)c2ccc(OC(F)(F)F)cc2)[C@H](CC)CN1c1nc2nncn2c2ccc(C#N)nc12 (single isomer, unassigned) [Compound 100]
< 100 nM | 100 to 1000 nM | CC[C@@H]1CN(c2nc3nncn3c3ccc(C#N)nc23)[C@@H](CC)CN1C(=O)Cc1ccc(C(F)(F)F)cc1 [Compound 85]
< 100 nM | 100 to 1000 nM | CC[C@H]1CN([C@H](CC)c2ccc(C(F)(F)F)cc2)[C@H](CC)CN1c1nc2nncn2c2ccc(C#N)nc12 (single isomer, unassigned) [Compound 110]
< 100 nM | > 1000 nM | CCC(c1ccc(C(F)(F)F)cc1)N1CCN(c2nc3nncn3c3ccc(C#N)nc23)C(CC)C1 (stereo not drawn) [Compound 102]
< 100 nM | 100 to 1000 nM | CC[C@H]1CN([C@H](C)c2ccc(S(F)(F)(F)(F)F)cc2)[C@H](CC)CN1c1nc2nncn2c2ccc(C#N)nc12 (stereo in doubt) [Compound 89]
< 100 nM | 100 to 1000 nM | CC[C@H]1CN([C@H](C)c2ccc(SC(F)(F)F)cc2)[C@H](CC)CN1c1nc2nncn2c2ccc(C#N)nc12 (stereo in doubt) [Compound 52]
< 100 nM | 100 to 1000 nM | N#Cc1ccc2c(n1)c(N1CCC3(CC1)CC(c1ccc(SC(F)(F)F)cc1)=NO3)nc1nncn12 [Compound 54]
< 100 nM | 100 to 1000 nM | CC[C@H]1CN([C@H](CC)c2ccc(OC)cc2F)[C@H](CC)CN1c1nc2nncn2c2ccc(C#N)nc12 (stereo in doubt) [Compound 116]
< 100 nM | > 1000 nM | CC[C@@H]1CN2c3c(c(=O)n(C)c4ccc(C#N)nc34)OC[C@@H]2CN1[C@@H](CC)c1ccc(C(F)(F)F)cc1 [Compound 121]
< 100 nM | 100 to 1000 nM | CC[C@H]1CN([C@H](CC)c2cccc(C(F)(F)F)c2)[C@H](CC)CN1c1nc2nncn2c2ccc(C#N)nc12 (stereo in doubt) [Compound 106]
< 100 nM | < 100 nM | CC[C@H]1CN([C@@H](C)c2ccc(S(F)(F)(F)(F)F)cc2)[C@H](CC)CN1c1nc2nncn2c2ccc(C#N)nc12 (stereo in doubt) [Compound 88]
< 100 nM | > 1000 nM | CC[C@@H]1CN(c2nc3nncn3c3ccc(C#N)nc23)[C@@H](CC)CN1C(=O)c1ccc(C(F)(F)F)cc1 [Compound 84]
< 100 nM | 100 to 1000 nM | CC[C@H]1CN([C@@H](CC)c2ccc(SC(F)(F)F)cc2)[C@H](CC)CN1c1nc2nncn2c2ccc(C#N)nc12 (single isomer, unassigned) [Compound 68]

From patent publication US20250215014A1, “KINASE INHIBITORS, PREPARATION METHODS AND USES THEREOF” (InventisBio Co., Ltd., priority 2022, published 2025)
